Measured values from the supplement of paper PMC5908809.

How the values were obtained:
[1] = system: normal NK cells expanded with K562-aAPC; assay: percent inhibition of viability; higher = more inhibition; settings: 72 h, IL-2 2.5 ng/mL
Experimental: (§1)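 Drug sensitivity and resistance testing on K562-aAPC-expanded normal NK cells: 5 concentrations (10-fold steps over a 10,000-fold range), 72 h at 37 °C, viability by CellTiter-Glo normalised to DMSO and benzethonium chloride controls; DSS from the fitted curve.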

DERL-7 (IL-2 2.5 ng/mL) [2] = assay: as above; settings: 72 h
IMC-1 (IL-2 20 ng/mL) [3] = assay: as above; settings: 72 h
KAI3 (IL-2 2.5 ng/mL) [4] = assay: as above; settings: 72 h
KHYG-1 (IL-2 2.5 ng/mL) [5] = assay: as above; settings: 72 h
NK-92 (IL-2 2.5 ng/mL) [6] = assay: as above; settings: 72 h
NK-YS (IL-2 2.5 ng/mL) [7] = assay: as above; settings: 72 h
NKL (IL-2 2.5 ng/mL) [8] = assay: as above; settings: 72 h
SNK-6 (IL-2 2.5 ng/mL) [9] = assay: as above; settings: 72 h
YT (IL-2 2.5 ng/mL) [10] = assay: as above; settings: 72 h
[11] = system: normal primary NK cells, pool 1 (3 donors) (IL-2 2.5 ng/mL); assay: as above; settings: 72 h
[12] = system: normal primary NK cells, pool 1 (3 donors), resting (IL-2 0 ng/mL); assay: as above; settings: 72 h
[13] = system: normal primary NK cells, pool 2 (3 donors) (IL-2 2.5 ng/mL); assay: as above; settings: 72 h
[14] = system: normal primary NK cells, pool 3 (3 donors) (IL-2 2.5 ng/mL); assay: as above; settings: 72 h
[15] = system: normal NK cells expanded with K562-aAPC; assay: drug sensitivity score (DSS) (DSS units); higher = more sensitive; extreme values may be limits of the assay; settings: 72 h; IL-2 2.5 ng/mL
Experimental: as §1

DERL-7 (IL-2 2.5 ng/mL) [16] = assay: as above; settings: 72 h
IMC-1 (IL-2 20 ng/mL) [17] = assay: as above; settings: 72 h
KAI3 (IL-2 2.5 ng/mL) [18] = assay: as above; settings: 72 h
KHYG-1 (IL-2 2.5 ng/mL) [19] = assay: as above; settings: 72 h
NK-92 (IL-2 2.5 ng/mL) [20] = assay: as above; settings: 72 h
NK-YS (IL-2 2.5 ng/mL) [21] = assay: as above; settings: 72 h
NKL (IL-2 2.5 ng/mL) [22] = assay: as above; settings: 72 h
SNK-6 (IL-2 2.5 ng/mL) [23] = assay: as above; settings: 72 h
YT (IL-2 2.5 ng/mL) [24] = assay: as above; settings: 72 h
[25] = system: normal primary NK cells, pool 1 (3 donors) (IL-2 2.5 ng/mL); assay: as above; settings: 72 h
[26] = system: normal primary NK cells, pool 1 (3 donors), resting (IL-2 0 ng/mL); assay: as above; settings: 72 h
[27] = system: normal primary NK cells, pool 2 (3 donors) (IL-2 2.5 ng/mL); assay: as above; settings: 72 h
[28] = system: normal primary NK cells, pool 3 (3 donors) (IL-2 2.5 ng/mL); assay: as above; settings: 72 h

Cn1cc(-c2cnn3c(N)c(Br)c([C@@H]4CCCNC4)nc23)cn1 [MK-8776] (max concentration tested 2500 nM)
percent inhibition of viability [%]
Settings	0.25 nM	2.5 nM	25 nM	250 nM	2500 nM
DERL-7 (IL-2 2.5 ng/mL) [2]	-4.26	-3.5	3.67	6.88	55.8
IMC-1 (IL-2 20 ng/mL) [3]	0.83	-1.94	-0.11	-7.96	-12.2
KAI3 (IL-2 2.5 ng/mL) [4]	3.31	2.43	4.64	27.4	78.2
KHYG-1 (IL-2 2.5 ng/mL) [5]	-1.01	-4.38	-0.53	35.5	96.9
NK-92 (IL-2 2.5 ng/mL) [6]	-2.81	3.64	-4.5	1.39	59.4
NK-YS (IL-2 2.5 ng/mL) [7]	-4.27	-8.69	-3.31	4.44	71.2
NKL (IL-2 2.5 ng/mL) [8]	-4.57	-4.36	-8.73	22.1	81.6
SNK-6 (IL-2 2.5 ng/mL) [9]	9.37	1.96	-6.2	5.96	39.8
YT (IL-2 2.5 ng/mL) [10]	0.02	-2.99	0.3	1.22	7.84
[1]	-4.61	0.4	-2.28	10.6	52.3
[11]	-5.76	-3.11	7.06	4.82	30.9
[12]	-9.91	-16.5	4.6	0.8	20
[13]	-8.05	-5.57	-3.65	-0.92	21.5
[14]	-9.21	-3.85	-3.76	-1.26	7.54

Settings	drug sensitivity score
DERL-7 (IL-2 2.5 ng/mL) [16]	4.16
IMC-1 (IL-2 20 ng/mL) [17]	0
KAI3 (IL-2 2.5 ng/mL) [18]	7.81
KHYG-1 (IL-2 2.5 ng/mL) [19]	10.2
NK-92 (IL-2 2.5 ng/mL) [20]	3.39
NK-YS (IL-2 2.5 ng/mL) [21]	4.58
NKL (IL-2 2.5 ng/mL) [22]	7.86
SNK-6 (IL-2 2.5 ng/mL) [23]	2.97
YT (IL-2 2.5 ng/mL) [24]	0
[15]	4.51
[25]	2.16
[26]	0.68
[27]	0.64
[28]	0
